Columns and labels:
S. aureus Newman = experiment: Bliss interaction score (quartile over a dose matrix) (fitness difference); higher = more antagonism (negative = synergy)
Method in brief: (§1)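 Fitness was OD595 at entry into stationary phase divided by the plate's robust no-drug mean and capped at 1; single-drug fitness was inferred from combination data. The Bliss score is observed minus expected (product) fitness, summarised by quartiles over technical, biological and donor/recipient replicates.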

S. aureus DSM 20231 [1] = experiment: as above
Method in brief: as §1

S. pneumoniae D39V [2] = experiment: as above
Method in brief: as §1

B. subtilis 168 [3] = experiment: as above
Method in brief: as §1

S. aureus DSM 20231 [4] = experiment: fitness (endpoint OD595 vs no drug) (fraction); higher = more growth
Method in brief: (§2)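 With the first reading as background, OD595 was measured every 30 min for 14 h in 384-well plates kept at 37 °C and inoculated at OD595 0.01. TSB, LB Lennox or CY was the medium. Fitness is the optical density at the transition into stationary phase divided by the robust mean of no-drug control wells, with a cap of 1.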

B. subtilis 168 [5] = experiment: as above
Method in brief: as §2

S. pneumoniae D39V [6] = experiment: as above
Method in brief: as §2
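For Bliss interaction score (quartile over a dose matrix) in this document: first quartile when negative (synergy) and third quartile when positive (antagonism).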

CCCCCCCCCC(=O)N[C@@H](Cc1c[nH]c2ccccc12)C(=O)N[C@H](CC(N)=O)C(=O)N[C@@H](CC(=O)O)C(=O)N[C@@H]1C(=O)NCC(=O)N[C@@H](CCCN)C(=O)N[C@@H](CC(=O)O)C(=O)N[C@H](C)C(=O)N[C@@H](CC(=O)O)C(=O)NCC(=O)N[C@H](CO)C(=O)N[C@@H]([C@H](C)CC(=O)O)C(=O)N[C@@H](CC(=O)c2ccccc2N)C(=O)O[C@@H]1C [Daptomycin] + COc1cc(Cc2cnc(N)nc2N)cc(OC)c1OC [Trimethoprim]
Conditions	Bliss interaction score
B. subtilis 168 [3]	0.0723
S. aureus DSM 20231 [1]	-0.0443
S. aureus Newman	0.0713
S. pneumoniae D39V [2]	-0.192

fitness
Conditions	first compound 0.125 µg/mL	first compound 0.25 µg/mL	first compound 0.5 µg/mL	first compound 1 µg/mL	first compound 2 µg/mL
B. subtilis 168 [5], partner 0.125 µg/mL	–	0.692	0.659	–	–
B. subtilis 168 [5], partner 0.25 µg/mL	–	–	0.552	–	–
B. subtilis 168 [5], partner 0.5 µg/mL	0.454	–	0.446	–	–
S. aureus DSM 20231 [4], partner 0.125 µg/mL	–	–	0.788	0.745	0.839
S. aureus DSM 20231 [4], partner 0.25 µg/mL	0.573	0.553	0.645	0.657	0.695
S. aureus DSM 20231 [4], partner 0.5 µg/mL	0.128	0.0962	–	0.304	0.37
S. aureus DSM 20231 [4], partner 1 µg/mL	0.0396	0.0212	0.0174	–	–

fitness, B. subtilis 168 [5], one replicate
Conditions	partner 0.1 µg/mL	partner 0.125 µg/mL	partner 0.2 µg/mL	partner 0.25 µg/mL	partner 0.4 µg/mL	partner 0.5 µg/mL	partner 1 µg/mL	partner 2 µg/mL
first compound 0.125 µg/mL	0.908	0.711	0.755	–	0.533	–	0.328	0.251
first compound 0.25 µg/mL	≥ 1	–	0.756	–	0.555	–	0.226	0.161
first compound 0.5 µg/mL	0.918	–	0.657	–	0.512	–	0.144	0.149
first compound 1 µg/mL	–	0.35	–	0.22	–	0.115	–	–

CN(C)C(=O)C(CCN1CCC(O)(c2ccc(Cl)cc2)CC1)(c1ccccc1)c1ccccc1 [Loperamide] + COc1c(N2C[C@@H]3CCCN[C@@H]3C2)c(F)cc2c(=O)c(C(=O)O)cn(C3CC3)c12 [Moxifloxacin]
Conditions	Bliss interaction score
B. subtilis 168 [3]	0.035
S. aureus DSM 20231 [1]	0.13
S. aureus Newman	0.0359
S. pneumoniae D39V [2]	0.0769

Conditions	fitness
B. subtilis 168 [5], first compound 25 µg/mL, partner 0.0312 µg/mL	0.0408
B. subtilis 168 [5], first compound 25 µg/mL, partner 0.0625 µg/mL	0.0524
B. subtilis 168 [5], first compound 25 µg/mL, partner 0.125 µg/mL	0.0382
B. subtilis 168 [5], first compound 25 µg/mL, partner 2 µg/mL	0.0259
B. subtilis 168 [5], first compound 25 µg/mL, partner 4 µg/mL	0.0205
B. subtilis 168 [5], first compound 25 µg/mL, partner 8 µg/mL	0.017
B. subtilis 168 [5], first compound 50 µg/mL, partner 0.0312 µg/mL	0.0458
B. subtilis 168 [5], first compound 50 µg/mL, partner 0.0625 µg/mL	0.0525
B. subtilis 168 [5], first compound 50 µg/mL, partner 0.125 µg/mL	0.068
B. subtilis 168 [5], first compound 50 µg/mL, partner 2 µg/mL	0.0274
B. subtilis 168 [5], first compound 50 µg/mL, partner 4 µg/mL	0.0294
B. subtilis 168 [5], first compound 50 µg/mL, partner 8 µg/mL	0.0145
B. subtilis 168 [5], first compound 100 µg/mL, partner 0.0312 µg/mL	0.0464
B. subtilis 168 [5], first compound 100 µg/mL, partner 0.0625 µg/mL	0.0527
B. subtilis 168 [5], first compound 100 µg/mL, partner 0.125 µg/mL	0.0413
B. subtilis 168 [5], first compound 100 µg/mL, partner 2 µg/mL	0.0272
B. subtilis 168 [5], first compound 100 µg/mL, partner 4 µg/mL	0.0176
B. subtilis 168 [5], first compound 100 µg/mL, partner 8 µg/mL	0.0179
S. pneumoniae D39V [6], first compound 17.14 µg/mL, partner 0.0037 µg/mL	0.897
S. pneumoniae D39V [6], first compound 17.14 µg/mL, partner 0.0075 µg/mL	0.952
S. pneumoniae D39V [6], first compound 17.14 µg/mL, partner 0.015 µg/mL	0.85
S. pneumoniae D39V [6], first compound 20 µg/mL, partner 0.005 µg/mL	≥ 1
S. pneumoniae D39V [6], first compound 20 µg/mL, partner 0.01 µg/mL	≥ 1
S. pneumoniae D39V [6], first compound 20 µg/mL, partner 0.02 µg/mL	≥ 1
S. pneumoniae D39V [6], first compound 34.28 µg/mL, partner 0.0037 µg/mL	0.822
S. pneumoniae D39V [6], first compound 34.28 µg/mL, partner 0.0075 µg/mL	0.905
S. pneumoniae D39V [6], first compound 34.28 µg/mL, partner 0.015 µg/mL	0.836
S. pneumoniae D39V [6], first compound 40 µg/mL, partner 0.005 µg/mL	≥ 1
S. pneumoniae D39V [6], first compound 40 µg/mL, partner 0.01 µg/mL	≥ 1
S. pneumoniae D39V [6], first compound 40 µg/mL, partner 0.02 µg/mL	≥ 1

S. pneumoniae D39V [6], first compound 68.57 µg/mL, one replicate
Conditions	fitness
partner 0.0037 µg/mL	0.729
partner 0.0075 µg/mL	0.796
partner 0.015 µg/mL	0.779
